Laboratory results as given in patent US20260274833A1 (NiKang Therapeutics, Inc., priority 2022, published 2026).

target: T1, CDK2 (Homo sapiens, UniProt P24941); assay: Phospho-RB measurement in OVCAR3 cells (HTRF phospho-RB cellular kit); format: cell-based; details: inhibition of RB phosphorylation at S807/811 (HTRF, TR-FRET ratio 665/620), 24 h compound treatment, 0.3 to 10,000 nM
T1 construct: endogenous in cells; host or cells: OVCAR3 cells
Experimental: Biological Example 1: Phospho-RB Measurement in OVCAR3 Cells
The ability of compounds of Formula (I) to inhibit CDK2 was determined in OVCAR3 cells by measuring inhibition of phosphorylation of RB protein at S780 and S807/811. Phosphorylation of RB protein at S807/811 were measured using HTRF phospho-RB cellular kits (Cat #64RBS807PEG) from Cisbio.
On Day 1, OVCAR3 cells were seeded into 96-well tissue-culture treated plates at 20,000 cells/well in 200 μL and incubated overnight at 37° C. in CO2 atmosphere. On Day 2, the cells were treated with test compounds at concentrations from 0.3 to 10,000 nM using HP D300 digital dispenser. Twenty-four hours after compound treatment, cell culture media was removed by flicking the plate and tapping the plate against clean paper towel. Immediately 30 μL 1× lysis buffer was supplemented from the kit and the plate was incubated at room temperature on shaker for 30 min. After homogenization by pipetting up and down, 8 μL cell lysate from 96-well cell culture plate was transferred to 384-well small volume white detection plate. 2 μL premixed detection solution was added and the plate was covered with sealer. To prepare the detection solution, d2 conjugated-phospho-RB antibody and Eu-cryptate conjugated phosphor-RB antibody were diluted into detection buffer following manufacturer's instruction.
Detection plates were incubated for 4 h at room temperature and read on ClarioStar (BMG Labtech) in TR-FRET mode ([…]). The TR-FRET ratio (665 nM/620 nM) was plotted against the compound concentration and normalized to DMSO controls. Half maximal inhibition concentration (IC50) values are calculated with a four-parameter logistic fit using GraphPad Prism (version 8; La Jolla, CA).

Compound	IC50 [nM]
O=S1(=O)CC2(CC(Nc3nccc(-c4sc(N5C6CCC5CN(CC(F)(F)F)C6)nc4-c4cccc(NS(=O)(=O)N5Cc6cccc(C(F)(F)F)c6C5)c4F)n3)C2)C1 [Example 40, N-(3-(5-(2-((2,2-dioxido-2-thiaspiro-[3.3]-heptan-6-yl)amino)pyrimidin-4-yl)-2-(3-(2,2,2-trifluoroethyl)-3,8-diazabicyclo[3.2.1]-octan-8-yl)thiazol-4-yl)-2-fluorophenyl)-4-(trifluoromethyl)-isoindoline-2-sulfonamide]	192
O=S1(=O)CC2(CC(Nc3nccc(-c4sc(C56CC(C5)C6)nc4-c4cccc(NS(=O)(=O)N5CCc6c5cccc6C(F)(F)F)c4F)n3)C2)C1 [Example 42, N-(3-(2-(bicyclo [1.1.1]pentan-1-yl)-5-(2-((2,2-dioxido-2-thiaspiro[3.3]heptan-6-yl)amino)-pyrimidin-4-yl)thiazol-4-yl)-2-fluorophenyl)-4-(trifluoromethyl)-indoline-1-sulfonamide]	278
CN1CC2CCC(C1)N2c1nc(-c2cccc(NS(=O)(=O)N3CCc4ccc(Cl)cc43)c2F)c(-c2ccnc(NC3CC4(C3)CS(=O)(=O)C4)n2)s1 [Example 43, 6-chloro-N-(3-(5-(2-((2,2-dioxido-2-thiaspiro[3.3]heptan-6-yl)amino)-pyrimidin-4-yl)-2-(3-methyl-3,8-diazabicyclo [3.2.1]octan-8-yl)thiazol-4-yl)-2-fluorophenyl) indoline-1-sulfonamide]	27.1
CN1CC2CCC(C1)N2c1nc(-c2cccc(NS(=O)(=O)N3CCc4ccc(C(F)(F)F)cc43)c2F)c(-c2ccnc(NC3CC4(C3)CS(=O)(=O)C4)n2)s1 [Example 44, N-(3-(5-(2-((2,2-dioxido-2-thiaspiro-[3.3]heptan-6-yl)amino)pyrimidin-4-yl)-2-(3-methyl-3,8-diazabicyclo[3.2.1]-octan-8-yl)thiazol-4-yl)-2-fluorophenyl)-6-(trifluoromethyl) indoline-1-sulfonamide]	56
O=S1(=O)CC2(CC(Nc3nccc(-c4sc(C56CC(C5)C6)nc4-c4cccc(NS(=O)(=O)N5CCc6c5ccc(F)c6F)c4F)n3)C2)C1 [Example 45, N-(3-(2-(bicyclo [1.1.1]pentan-1-yl)-5-(2-((2,2-dioxido-2-thiaspiro[3.3]heptan-6-yl)amino)-pyrimidin-4-yl)thiazol-4-yl)-2-fluorophenyl)-4,5-difluoroindoline-1-sulfonamide]	314
O=S1(=O)CC2(CC(Nc3nccc(-c4sc(C56CC(C5)C6)nc4-c4cccc(NS(=O)(=O)N5CCc6ccccc6C5)c4F)n3)C2)C1 [Example 46, N-(3-(2-(bicyclo [1.1.1]pentan-1-yl)-5-(2-((2,2-dioxido-2-thiaspiro[3.3]heptan-6-yl)amino)-pyrimidin-4-yl)thiazol-4-yl)-2-fluorophenyl)-3,4-dihydroisoquinoline-2(1H)-sulfonamide]	476
O=S1(=O)CC2(CC(Nc3nccc(-c4sc(C56CC(C5)C6)nc4-c4cccc(NS(=O)(=O)N5CCc6cc(Cl)ccc65)c4F)n3)C2)C1 [Example 47, N-(3-(2-(bicyclo [1.1.1]pentan-1-yl)-5-(2-((2,2-dioxido-2-thiaspiro[3.3]heptan-6-yl)amino)-pyrimidin-4-yl)thiazol-4-yl)-2-fluorophenyl)-5-chloroindoline-1-sulfonamide]	343
O=S1(=O)CC2(CC(Nc3nccc(-c4sc(C56CC(C5)C6)nc4-c4cccc(NS(=O)(=O)N5CCc6ccc(OC(F)F)cc65)c4F)n3)C2)C1 [Example 48, N-(3-(2-(bicyclo [1.1.1]pentan-1-yl)-5-(2-((2,2-dioxido-2-thiaspiro[3.3]heptan-6-yl)amino)-pyrimidin-4-yl)thiazol-4-yl)-2-fluorophenyl)-6-(difluoromethoxy)-indoline-1-sulfonamide]	139
O=S1(=O)CC2(CC(Nc3nccc(-c4sc(N5C6CCC5CN(CC(F)(F)F)C6)nc4-c4cccc(NS(=O)(=O)N5Cc6cccc(C(F)F)c6C5)c4F)n3)C2)C1 [Example 49]	137
O=S1(=O)CC2(CC(Nc3nccc(-c4sc(C56CC(C5)C6)nc4-c4cccc(NS(=O)(=O)N5CCCc6ccccc6C5)c4F)n3)C2)C1 [Example 50, N-(3-(2-(bicyclo [1.1.1]pentan-1-yl)-5-(2-((2,2-dioxido-2-thiaspiro[3.3]heptan-6-yl)amino)-pyrimidin-4-yl)thiazol-4-yl)-2-fluorophenyl)-1,3,4,5-tetrahydro-2H-benzo[c]azepine-2-sulfonamide]	228
O=S1(=O)CC2(CC(Nc3nccc(-c4sc(N5C6CCC5CN(C5CC(F)(F)C5)C6)nc4-c4cccc(NS(=O)(=O)N5CCc6ccc(Cl)cc65)c4F)n3)C2)C1 [Example 51, 6-chloro-N-(3-(2-(3-(3,3-difluoro-cyclobutyl)-3,8-diazabicyclo [3.2.1]octan-8-yl)-5-(2-((2,2-dioxido-2-thiaspiro-[3.3]heptan-6-yl)amino)-pyrimidin-4-yl)thiazol-4-yl)-2-fluorophenyl)-indoline-1-sulfonamide]	336
O=S1(=O)CC2(CC(Nc3nccc(-c4sc(N5C6CCC5CN(C5CC(F)(F)C5)C6)nc4-c4cccc(NS(=O)(=O)N5Cc6cccc(C(F)F)c6C5)c4F)n3)C2)C1 [Example 52, N-(3-(2-(3-(3,3-difluorocyclobutyl)-3,8-diazabicyclo [3.2.1]octan-8-yl)-5-(2-((2,2-dioxido-2-thiaspiro[3.3]heptan-6-yl)amino)-pyrimidin-4-yl)thiazol-4-yl)-2-fluorophenyl)-4-(difluoromethyl)-isoindoline-2-sulfonamide]	160
CS(=O)(=O)[C@H]1CC[C@H](Nc2nccc(-c3sc(C45CC(C(F)(F)F)(C4)C5)nc3-c3cccc(NS(=O)(=O)N4CCc5ccccc54)c3F)n2)CC1 [Example 53]	262
CS(=O)(=O)[C@H]1CC[C@H](Nc2nccc(-c3sc(C45CC(C(F)(F)F)(C4)C5)nc3-c3cccc(NS(=O)(=O)N4CCc5ccc(Cl)cc54)c3F)n2)CC1 [Example 54, 6-chloro-N-(2-fluoro-3-(5-(2-(((1r,4r)-4-(methylsulfonyl)cyclohexyl)amino)pyrimidin-4-yl)-2-(3-(trifluoromethyl)bicyclo-[1.1.1]-pentan-1-yl)thiazol-4-yl)phenyl)-indoline-1-sulfonamide]	382
CS(=O)(=O)[C@H]1CC[C@H](Nc2nccc(-c3sc(C45CC(C(F)(F)F)(C4)C5)nc3-c3cccc(NS(=O)(=O)N4CCc5ccc(C(F)(F)F)cc54)c3F)n2)CC1 [Example 55, N-(2-fluoro-3-(5-(2-(((1r, 4r)-4-(methylsulfonyl)cyclohexyl)amino)pyrimidin-4-yl)-2-(3-(trifluoromethyl)bicyclo-[1.1.1]-pentan-1-yl)thiazol-4-yl)phenyl)-6-(trifluoromethyl) indoline-1-sulfonamide]	525
CS(=O)(=O)[C@H]1CC[C@H](Nc2nccc(-c3sc(C45CC(C(F)(F)F)(C4)C5)nc3-c3cccc(NS(=O)(=O)N4CCc5ccc(C#N)cc54)c3F)n2)CC1 [Example 56, 6-cyano-N-(2-fluoro-3-(5-(2-(((1r,4r)-4-(methylsulfonyl)cyclohexyl)amino)-pyrimidin-4-yl)-2-(3-(trifluoromethyl)-bicyclo[1.1.1]-pentan-1-yl)thiazol-4-yl)phenyl)indoline-1-sulfonamide]	270
